These results are taken from a melting point compilation (Tetko et al.; mined from patent text by program, amines drawn as free bases though some values may be those of a salt).

As a reminder, the melting point is the temperature, or range, at which the solid turns liquid.

`CC(=O)OCCn1c(=O)c(C#N)c(N2CCN(C(=O)c3cccs3)CC2)c2cccnc21` displayed a melting point of 189 °C. Next, `Nc1cc(Br)c(F)c(Cl)c1F`: 86 to 88 °C; `N#Cc1ccc(-c2ccc(OC[C@H](O)CCc3cccnc3)cc2)cc1`: 135 to 136 °C; `O=C1CCCc2ncc(Cl)cc21`: 84 to 86 °C. In turn, `COc1ccccc1NC(=O)Nc1ccc(CC(=O)OC(C)(C)C)cc1C` registered a melting point of 157 to 158 °C.

With `CC(C)c1ccc(N(Cc2cnn(Cc3ccc(Cl)s3)c2)C(=O)C2CCCc3c(O)cccc32)cn1` (stereo not drawn), the melting point lay in the range of 98 to 101 °C. On to `COc1ccc(-c2ccc(NN)nn2)cc1OC(C)C`, for which the melting point is 116 °C. The compound `O=Cc1ccc(OCc2ccccn2)cc1O` yielded a melting point of 89.2 to 89.7 °C. Regarding `O=C1CCC2(CN1)C(=O)C(=O)c1ccccc12` (stereo not drawn), the melting point was in the range of 227 to 228 °C. Regarding `O=Cc1cnn(-c2c(Cl)cc(C(F)(F)F)cc2Cl)n1`, the melting point lay within 94 to 95 °C. `CCc1cc(C(=O)c2ccccc2Cl)c(-n2c(C)nnc2CO)s1` displayed a melting point of 140 to 141 °C. Turning to `CN1C(=O)CCC(C)(C)c2cc(N)ccc21`, the melting point lay in the range of 119 to 122 °C.

In turn, `Cc1ccccc1C(Oc1cc(OCc2ccccc2)ccc1C#N)C(=O)O` (racemic) showed a melting point of 128 to 130 °C. For `CCCCN(CCCC)c1ccc(C=CC2=CC(=CC=CC3=C(C#N)C(=C(C#N)C#N)OC3(c3ccccc3)C(F)(F)F)CC(C)(C)C2)c(OC)c1` (stereo not drawn), the melting point lay within 164 to 166 °C.

In turn, `COc1ccc(C(C)C)cc1-c1cc(-c2nnnn2C2CCN(C(=O)OC(C)(C)C)C2)c(OCc2ccccc2)cc1OCc1ccccc1` (stereo not drawn) showed a melting point of 73 to 77 °C. Next, `OC1(c2cc(F)cc(CC#COC#CCc3cc(F)cc(C4(O)CCOCC4)c3)c2)CCOCC1`: 120 to 122 °C; `O=C(NCc1ccc(Cl)cc1)c1n[nH]c2ccccc2c1=O`: 269 to 271 °C. As for `CN1CCCc2c(NC(=NC#N)NC(NC(=O)Cc3ccc(Cl)cc3)C(C)(C)C)cccc21` (stereo not drawn), the melting point fell in the range of 114 to 117 °C.

In turn, `Cc1ccc2cccc(OCc3c(Cl)ccc(S(=O)(=O)N(C)Cc4cccc(C(=O)O)c4)c3Cl)c2n1` yielded a melting point of 204 °C. Next, `COc1cc(Nc2nc3cccc(-c4ccc(NC(C)=O)cc4)c3o2)cc(OC)c1OC`: 265 to 270 °C.

The compound `OCC1Cc2c(F)cccc2OC1CO` (stereo not drawn) came in with a melting point of 99 to 101 °C. For the compound `O=CN1CCN(c2nc(Cl)nc(Cl)n2)CC1`, the melting point lay within 163 to 165 °C. Compound `Clc1ccc(N2CCN(CCCc3c4c(nn3-c3ccc(Cl)cc3)CCCC4)CC2)cc1` gave a melting point of 129 to 131 °C.

With `Oc1ccc(OCCN2CCC(CC34CC5CC(CC(C5)C3)C4)CC2)cc1`, the melting point is 178 to 179 °C. In turn, `Cc1ccccc1-c1cccc2c1CNC(=O)N2c1ccccc1` came in with a melting point of 236 to 238 °C. Next, `Cc1cc(Oc2ncc(C(F)(F)F)cc2Cl)nn1C(=O)Nc1cccc([N+](=O)[O-])c1`: 172 to 174 °C; `ICCc1ccc2c(c1)OCO2`: 36 to 38 °C; `COCCc1nc2c(N)nc3c(c2n1CCOCCNS(C)(=O)=O)CCCC3`: 151 to 153 °C. Under `CC(=O)C(Cl)=CSC(C)(C)C` stands 73 °C; under `O=C1CCN2C(=O)c3cccc(NC(=O)Nc4ccccn4)c3C2C1` (stereo not drawn), 254 °C; under `CC(=O)OCC(=O)COC(C)=O`, 45.5 to 46.6 °C. On to `CCNC(=O)c1ccc(-c2ccc3nnn(C(C)(C)c4ccc5ncccc5c4)c3n2)cc1F`, for which the melting point was 132 to 135 °C. `CC(C)OC(=O)C=CC1C(C(=O)O)C1(C)C` (stereo not drawn) yielded a melting point of 98 °C. As for `CCCCc1oc2ccccc2c1-c1ncc(-c2ccc3cc(OCc4ccc(C(=O)OC)cc4)ccc3c2)o1`, the melting point was in the range of 169 to 170 °C.

Regarding `COc1c2c(c(OC)c(OC)c1OC)CCC(=O)CC2`, the melting point fell in the range of 77 to 78 °C. Next, `CN(CCNC(=O)NCCSCc1csc(NC(=N)N)n1)CCN(Cc1ccc(F)cc1)c1ccccn1`: 132 °C; `CCOC(=O)c1cnc2ccc(CC)nc2c1Nc1ccc(OC)cc1`: 145 to 148 °C.

For `CCOc1ccc2c(c1)CC(=O)N2C1CCCCO1` (stereo not drawn), the melting point was in the range of 108 to 110 °C. Next, `CC1=CC(c2cccc([N+](=O)[O-])c2)C(C(=O)O)=NN1` (stereo not drawn): 149 °C. `CCCN(c1cccc(-c2ccnc3c([N+](=O)[O-])cnn23)c1)S(=O)(=O)c1ccc(OC)cc1` registered a melting point of 184 to 185 °C. In the case of `Fc1ccc(Cn2c(NC3CCN(CCNc4ncccn4)CC3)nc3ccccc32)cc1`, the melting point was determined as 168 °C. Turning to `COc1ccc(S(=O)(=O)C(c2cnc(C(=O)NCCO)cc2C)c2cc(F)ccc2F)cc1F` (stereo not drawn), the melting point lay within 137 to 138 °C. Consider `CC1(C)CC(=O)C(C(=O)Nc2ccc(Cl)c(Cl)c2)C(=O)O1` (stereo not drawn), for which the melting point fell in the range of 212 to 215 °C. Under `CC(OC(=O)c1ccc(C(=O)O)cc1)c1ccc2c(c1)C(C)(C)CCC2(C)C` (single isomer, unassigned; (-)) stands 138 °C; under `Cn1nnnc1NCCSCc1csc(NC(=N)N)n1`, 80 to 83 °C; under `CCCC(=O)NCC1Cc2cccc3cccc1c23` (stereo not drawn), 111 °C. `Oc1ccccc1C=NC1CCOc2ccccc21` (stereo not drawn) had a melting point of 123 to 126 °C. Under `Cc1cc(N2CCc3ccccc32)nc(N)n1` stands 242 to 244 °C; under `O=C=Nc1ccc(OCCOc2ccc(N=C=O)cc2)cc1`, 95 to 97 °C; under `CNCC1Cc2cc(Cl)cc(-c3ccccc3OC)c2O1` (stereo not drawn), 100 to 102 °C. Under `CCn1c(=O)c2c(nc(/C=C/c3ccc(OC)c(C)c3C)n2C)n(CC)c1=O` stands 208 °C; under `CCC1(CC)Cc2cc(O)c(Cl)c(Cl)c2C1=O`, 184 °C. Compound `CC(=O)OCC(=O)c1ccc(C)cc1C` had a melting point of 43 to 45 °C.

Take `CN(C)C(=O)n1cc(C(=O)C2CSC(c3cccnc3)N2C=O)c2ccc(OCc3ccccc3)cc21` (stereo not drawn): the melting point stood at 90 °C. Under `COC(=O)C1Oc2ccc(C3CCCCC3)cc2C(C)(c2ccccc2)O1` (stereo not drawn) stands 107 °C; under `COc1cc(C(C)C)c2c(c1)S(=O)(=O)N(COC(=O)c1sccc1Cl)C2=O`, 138 to 140 °C; under `CCCCCCCCCCCCOC(=O)CS(=O)(=O)Nc1c(C(C)C)cccc1C(C)C`, 58 to 59 °C. Turning to `C=C(Br)Cc1cccs1`, the melting point is 69 to 71 °C.

In the case of `Cn1cc(Br)cc(Nc2cc3n(n2)CCOC3)c1=O`, the melting point was 195 to 197 °C. For `CCCN1NCc2c(C3C(=O)Nc4ccc(Br)cc43)ncnc21` (stereo not drawn), the melting point lay within 295 to 300 °C. Under `CCCCCCCCCCCCCCCCCCOc1ccc(OCCCc2ccccc2)c(C(=O)N(CC(=O)OCC)CC(=O)OCC)c1` stands 54 to 55 °C.

Take `COC(=O)c1ccc(C(C)(C)CO)cc1`: the melting point is 44 to 45 °C.

Take `CCSc1nc2c(C)sc(C(=O)O)c2n1Cc1ccc(-c2ccccc2-c2nnnn2C(c2ccccc2)(c2ccccc2)c2ccccc2)cc1`: the melting point was in the range of 138 to 140 °C.

Compound `CN(C)C(CC(F)C(=O)c1ccccc1)N1CCC(O)(c2ccc(Cl)cc2)CC1` (stereo not drawn) returned a melting point of 160 to 163 °C. Regarding `CCOC(=O)Nc1c(C(=O)c2cccc(Cl)c2)[nH]c2cc(Cl)ccc12`, the melting point fell in the range of 188 to 189 °C. Compound `CCCn1nnn(-c2ccc([N+](=O)[O-])cc2)c1=O` returned a melting point of 91.1 °C.

For `CC(=NO)c1noc2ccccc12`, the melting point lay in the range of 193 to 195 °C. Under `O=C(N[C@H](Cc1ccc(C(F)(F)F)cc1)[C@@H](O)c1cccc2ccccc12)c1ccc(C(F)(F)F)cc1` (racemic) stands 232 to 233 °C; under `CCN(CC)C(=O)n1cnc(S(=O)(=O)c2ccccc2OCC(F)(F)F)n1`, 134 to 135 °C; under `CC(NC(Nc1ccc2c(c1)OCO2)=C(C#N)S(=O)(=O)c1ccc(Cl)cc1)C(C)(C)C` (stereo not drawn), 160 to 162 °C. Under `O=C(O)CCCCCCOc1ccc(OCc2ccccc2)cc1` stands 118 to 119 °C; under `CN1CCN(C2=Nc3cc(Cl)c(Cl)cc3Nc3nn(C)nc32)CC1`, 218 °C. Under `COc1c(OCCOc2ccc(C(C)(C)C)cc2)ccnc1C` stands 84 to 87 °C; under `COc1cc(C(=O)c2ncc3c(C(=O)N(C)C)cccn23)ccc1[N+](=O)[O-]`, 176 °C. As for `Cc1cc(C)cc(Cc2c(C(C)C)c(=O)[nH]c(=O)n2COCCCN(OC(=O)Oc2ccccc2)C(=O)Oc2ccccc2)c1`, the melting point lay in the range of 59 to 61 °C. Under `CCOC(OCC)C1Cc2c(Br)ccc(OC)c2C1=O` (stereo not drawn) stands 76 to 78 °C; under `Cc1onc(NS(=O)(=O)c2ccccc2-c2ccc(-c3ncco3)cc2Cn2ccc(C(F)(F)F)n2)c1C`, 89 to 99 °C; under `CC1(C)CCC(C)(C)c2cc(C(=O)c3ccc(C(=O)O)cc3)c(OCc3ccccc3)cc21`, 212 to 213 °C. The compound `Nc1cc2[nH]c(=O)c(C(=O)O)nc2cc1F` registered a melting point of over 300 °C. Next, `COc1ccc2c(c1)c(-c1cc3nccnc3[nH]1)cn2CCCN`: 95 to 100 °C.

On to `CN1C(=O)C2C3C=CC(C3)C2(c2ccc(N)cc2)C1=O` (stereo not drawn), for which the melting point was in the range of 129 to 131 °C. Consider `COc1c(Cl)ccc(C#N)c1F`, for which the melting point fell in the range of 94 to 97 °C. With `CN1c2ccccc2N(C(=O)CNC(C)(C)C)c2ccccc2S1(=O)=O`, the melting point was 143 to 145 °C. Under `COc1ccc(-c2cc3nc(N4CCCCC4)c4ccccc4c3nn2)cc1` stands 168 to 169 °C; under `CCOC(=O)c1[nH]c2c(O)cccc2c1C`, 187 to 190 °C; under `O=C(Cc1ccccc1)N1CCC2(Cc3ccccc3O2)C1` (stereo not drawn), 98 to 99 °C.

The compound `O=C(O)c1ccccc1C(=O)NCCCCc1cccnc1` had a melting point of 132 to 135 °C. `Cc1csc2ccc3[nH]c4c(c3c12)CN(Cc1ccccc1)CC4` registered a melting point of 93 °C.
